In US20120028929A1, “TETRACYCLINE STABILIZING FORMULATIONS” (ALACRITY BIOSCIENCE, INC., priority 2008, published 2012):
Values joined by “and” are separate entries in the source; they are usually repeats but may differ in a detail not shown here. Equal entries are not always repeated. Blank lines part the entries; values can stand above or below the molecule they belong to.

What was measured:
[1] = Multi-dimensional parametric testing of doxycycline stability in aqueous solution; assay type: physicochemical; details: for doxycycline stability t = 0 / doxycycline stability 2 wks / doxycycline stability 4 wks: 250 μg/mL; for degradation: 2 weeks
Text: (§1) Standard methods known in the art are used for monitoring the degradation of tetracycline into its epimers or degradation products. For example, one method for monitoring tetracycline degradation is an analytical technique using chromatography, e.g. high pressure liquid chromatography (HPLC), to separate the various degradants, e.g. epimers and other degradants, and a sensitive detector to identify and quantify the concentrations of the drug and degradants over time.
A multi-dimensional parametric test on doxycycline stability was conducted to study the effect of pH, storage temperature and the presence of various chemical agents.

[2] = Combinatorial effect of antioxidants and tonicity adjustment agents in doxycycline stability; assay type: physicochemical; details: for doxycycline stability 5 Wks / doxycycline stability 8 Wks / doxycycline stability 12 Wks / doxycycline stability 2 Wks / doxycycline stability Init.: HPMC
Text: as §1

[3] = assay type: physicochemical
Experimental: The rate of doxycycline epimerization increased with temperature and time (see Table 7). […] Long-term storage (more than 18 months) should therefore be at refrigeration temperatures (2-8° C.) to minimize conversion of doxycycline to its epimers.
After 12 months of storage at 5° C., about 0.0014% w/w of the doxycycline in solution was lost to degradation. That is, original doxycyline concentration was 0.025% w/w and concentration after 12 months was 0.0236% w/w, corresponding to 94.4% Label Claim (LC).
The epimerization of doxycycline into 4-epidoxycycline is reversible, and the rate of 4-epidoxycycline formation is related to the kinetic equilibrium between the two compounds. Therefore, one method for specifically reducing the rate of doxycycline epimerization into 4-epidoxycycline is to fortify the formulation with 4-epidoxycycline.

[4] = previous studies; cited from earlier work
[5] = Disodium Edetate, pH 5.3, 5° C.
[6] = Disodium Edetate, pH 5.3, 25° C.
[7] = Sodium Metabisulfite, pH 5.3, 5° C.
[8] = Sodium Metabisulfite, pH 5.3, 25° C.
[9] = Sodium Thiosulfate, pH 5.3, 5° C.
[10] = Sodium Thiosulfate, pH 5.3, 25° C.
[11] = Edetate Disodium 0.1%, Sodium Metabisulfite 0.1%, Sodium Thiosulfate 0.2%, Glycerin (167 mOsm/kg), 5° C.
[12] = Edetate Disodium 0.1%, Sodium Metabisulfite 0.1%, Sodium Thiosulfate 0.2%, Glycerin (167 mOsm/kg), 25° C.
[13] = Edetate Disodium 0.2%, Sodium Metabisulfite 0.2%, Sodium Thiosulfate 0.3%, Glycerin (287 mOsm/kg), 5° C.
[14] = Edetate Disodium 0.2%, Sodium Metabisulfite 0.2%, Sodium Thiosulfate 0.3%, Glycerin (287 mOsm/kg), 25° C.
[15] = Edetate Disodium 0.2%, Sodium Metabisulfite 0.2%, Sodium Thiosulfate 0.3%, Glycerin (287 mOsm/kg), 40° C.
[16] = Edetate Disodium 0.2%, Sodium Metabisulfite 0.2%, Sodium Thiosulfate 0.3%, NaCl (330 mOsm/kg), 5° C.

- doxycycline stability t = 0 ([1]; Disodium Edetate, pH 5.3): 100%
- doxycycline stability 2 wks [1, 5]: 99%
- doxycycline stability 4 wks [1, 5]: 96%
- doxycycline stability 2 wks [1, 6]: 97%
- doxycycline stability 4 wks [1, 6]: 88%
- doxycycline stability 2 wks ([1]; Disodium Edetate, pH 5.3, 40° C.): 24%
- doxycycline stability t = 0 ([1]; Disodium Edetate, pH 7): 100%
- doxycycline stability 2 wks ([1]; Disodium Edetate, pH 7, 5° C.): 96%
- doxycycline stability 2 wks ([1]; Disodium Edetate, pH 7, 25° C.): 55%
- doxycycline stability 2 wks ([1]; Disodium Edetate, pH 7, 40° C.): 4%
- doxycycline stability t = 0 ([1]; None (no antioxidant/chelating agent), pH 5.3): 100%
- doxycycline stability 2 wks ([1]; None, pH 5.3, 5° C.): 96%
- doxycycline stability 4 wks ([1]; None, pH 5.3, 5° C.): 93%
- doxycycline stability 2 wks ([1]; None, pH 5.3, 25° C.): 73%
- doxycycline stability 4 wks ([1]; None, pH 5.3, 25° C.): 59%
- doxycycline stability 2 wks ([1]; None, pH 5.3, 40° C.): 19%
- doxycycline stability t = 0 ([1]; None, pH 7): 100%
- doxycycline stability 2 wks ([1]; None, pH 7, 5° C.): 94%
- doxycycline stability 2 wks ([1]; None, pH 7, 25° C.): 49%
- doxycycline stability 2 wks ([1]; None, pH 7, 40° C.): 11%
- doxycycline stability t = 0 ([1]; Sodium Bisulfite, pH 5.3): 100%
- doxycycline stability 2 wks ([1]; Sodium Bisulfite, pH 5.3, 5° C.): 88%
- doxycycline stability 2 wks ([1]; Sodium Bisulfite, pH 5.3, 25° C.): 72%
- doxycycline stability 2 wks ([1]; Sodium Bisulfite, pH 5.3, 40° C.): 57%
- doxycycline stability t = 0 ([1]; Sodium Bisulfite, pH 7): 100%
- doxycycline stability 2 wks ([1]; Sodium Bisulfite, pH 7, 5° C.): 91%
- doxycycline stability 2 wks ([1]; Sodium Bisulfite, pH 7, 25° C.): 83%
- doxycycline stability 2 wks ([1]; Sodium Bisulfite, pH 7, 40° C.): 48%
- doxycycline stability t = 0 ([1]; Sodium Metabisulfite, pH 5.3): 100%
- doxycycline stability 2 wks [1, 7]: 99%
- doxycycline stability 4 wks [1, 7]: 97%
- doxycycline stability 2 wks [1, 8]: 92%
- doxycycline stability 4 wks [1, 8]: 90%
- doxycycline stability 2 wks ([1]; Sodium Metabisulfite, pH 5.3, 40° C.): 59%
- doxycycline stability t = 0 ([1]; Sodium Metabisulfite, pH 7): 100%
- doxycycline stability 2 wks ([1]; Sodium Metabisulfite, pH 7, 5° C.): 97%
- doxycycline stability 2 wks ([1]; Sodium Metabisulfite, pH 7, 25° C.): 86%
- doxycycline stability 2 wks ([1]; Sodium Metabisulfite, pH 7, 40° C.): 51%
- doxycycline stability t = 0 ([1]; Sodium Thiosulfate, pH 5.3): 100%
- doxycycline stability 2 wks [1, 9]: 99%
- doxycycline stability 4 wks [1, 9]: 99%
- doxycycline stability 2 wks [1, 10]: 95%
- doxycycline stability 4 wks [1, 10]: 93%
- doxycycline stability 2 wks ([1]; Sodium Thiosulfate, pH 5.3, 40° C.): 67%
- doxycycline stability t = 0 ([1]; Sodium Thiosulfate, pH 7): 100%
- doxycycline stability 2 wks ([1]; Sodium Thiosulfate, pH 7, 5° C.): 96%
- doxycycline stability 2 wks ([1]; Sodium Thiosulfate, pH 7, 25° C.): 91%
- doxycycline stability 2 wks ([1]; Sodium Thiosulfate, pH 7, 40° C.): 7%
- doxycycline stability t = 0 ([1]; Thiourea, pH 5.3): 100%
- doxycycline stability 2 wks ([1]; Thiourea, pH 5.3, 5° C.): 98%
- doxycycline stability 2 wks ([1]; Thiourea, pH 5.3, 25° C.): 80%
- doxycycline stability 2 wks ([1]; Thiourea, pH 5.3, 40° C.): 22%
- doxycycline stability t = 0 ([1]; Thiourea, pH 7): 100%
- doxycycline stability 2 wks ([1]; Thiourea, pH 7, 5° C.): 98%
- doxycycline stability 2 wks ([1]; Thiourea, pH 7, 25° C.): 74%
- doxycycline stability 2 wks ([1]; Thiourea, pH 7, 40° C.): 9%
- degradation ([1]; aqueous solution, neutral pH, 5° C., no additive): 6%
- degradation ([1]; aqueous solution, neutral pH, room temperature (RT), no additive): 51%
- degradation ([1]; aqueous solution, neutral pH, room temperature (RT), no additive, listed as doxcycline): about 51%
- degradation ([1]; pH 5.3, RT, addition of edetate disodium): 3%
- degradation ([1]; pH 5.3, RT, addition of sodium bisulfate): 28%
- degradation ([1]; pH 5.3, RT, addition of sodium metabisulfite): 8%
- degradation ([1]; pH 5.3, RT, addition of sodium thiosulfate): 5%
- degradation ([1]; pH 5.3, RT, addition of thiourea): 20%
- degradation ([1]; pH 5.3, RT, no additive): 28% and 27%
- degradation ([2]; 0.025% w/w doxycycline, edetate, metabisulfite, thiosulfate, phosphate-citrate buffer, glycerin, pH 5.2-5.8, 12 weeks at 5° C.): no detectable degradation
- doxycycline stability 5 Wks [2, 11]: 102.8%
- doxycycline stability 8 Wks [2, 11]: 100.6%
- doxycycline stability 12 Wks [2, 11]: 99.4%
- doxycycline stability 5 Wks [2, 12]: 97.0%
- doxycycline stability 8 Wks [2, 12]: 90.4%
- doxycycline stability 12 Wks [2, 12]: 85.1%
- doxycycline stability 5 Wks ([2]; Edetate Disodium 0.1%, Sodium Metabisulfite 0.1%, Sodium Thiosulfate 0.2%, Glycerin (167 mOsm/kg), 40° C.): 58.2%
- doxycycline stability 5 Wks ([2]; Edetate Disodium 0.1%, Sodium Metabisulfite 0.1%, Sodium Thiosulfate 0.2%, NaCl (325 mOsm/kg), 5° C.): 103.6%
- doxycycline stability 5 Wks ([2]; Edetate Disodium 0.1%, Sodium Metabisulfite 0.1%, Sodium Thiosulfate 0.2%, NaCl (325 mOsm/kg), 25° C.): 96.6%
- doxycycline stability 5 Wks ([2]; Edetate Disodium 0.1%, Sodium Metabisulfite 0.1%, Sodium Thiosulfate 0.2%, NaCl (325 mOsm/kg), 40° C.): 55.8%
- doxycycline stability 5 Wks ([2]; Edetate Disodium 0.1%, Sodium Metabisulfite 0.1%, Glycerin (138 mOsm/kg), 5° C.): 94.6%
- doxycycline stability 5 Wks ([2]; Edetate Disodium 0.1%, Sodium Metabisulfite 0.1%, Glycerin (138 mOsm/kg), 25° C.): 84.9%
- doxycycline stability 5 Wks ([2]; Edetate Disodium 0.1%, Sodium Metabisulfite 0.1%, Glycerin (138 mOsm/kg), 40° C.): 47.1%
- doxycycline stability 5 Wks ([2]; Edetate Disodium 0.1%, Sodium Metabisulfite 0.1%, NaCl (305 mOsm/kg), 5° C.): 90.6%
- doxycycline stability 5 Wks ([2]; Edetate Disodium 0.1%, Sodium Metabisulfite 0.1%, NaCl (305 mOsm/kg), 25° C.): 81.8%
- doxycycline stability 5 Wks ([2]; Edetate Disodium 0.1%, Sodium Metabisulfite 0.1%, NaCl (305 mOsm/kg), 40° C.): 46.5%
- doxycycline stability 2 Wks [2, 13]: 103.0%
- doxycycline stability 5 Wks [2, 13]: 101.2%
- doxycycline stability 8 Wks [2, 13]: 100.6%
- doxycycline stability 12 Wks [2, 13]: 100.4%
- doxycycline stability Init. [2, 13]: 103.2%
- doxycycline stability 2 Wks [2, 14]: 101.0%
- doxycycline stability 5 Wks [2, 14]: 93.3%
- doxycycline stability 8 Wks [2, 14]: 85.2%
- doxycycline stability 12 Wks [2, 14]: 84.8%
- doxycycline stability 2 Wks [2, 15]: 80.3%
- doxycycline stability 5 Wks [2, 15]: 55.1%
- doxycycline stability 2 Wks [2, 16]: 103.0%
- doxycycline stability Init. [2, 16]: 103.4%
- doxycycline stability 2 Wks ([2]; Edetate Disodium 0.2%, Sodium Metabisulfite 0.2%, Sodium Thiosulfate 0.3%, NaCl (330 mOsm/kg), 25° C.): 100.6%
- doxycycline stability 2 Wks ([2]; Edetate Disodium 0.2%, Sodium Metabisulfite 0.2%, Sodium Thiosulfate 0.3%, NaCl (330 mOsm/kg), 40° C.): 79.9%
- share of degradation by epimerization into 4-epidoxycycline [3]: over half of the degradation
- doxycycline in solution lost to degradation ([3]; 12 months, 0.025 % w/w): about 0.0014 % w/w
Structure (SMILES): C[C@H]1c2cccc(O)c2C(=O)C2=C(O)[C@]3(O)C(=O)C(C(N)=O)=C(O)[C@@H](N(C)C)[C@@H]3[C@@H](O)[C@@H]21 [doxycycline]
- effect of fortifying with 4-epidoxycycline on degradation [3]: reduced degradation of doxycycline during storage
- route of doxycycline degradation ([3]; 12 months, 0.025 % w/w): practically all of the degradation of doxycycline at 5 °C was through conversion into 4-epidoxycycline

Structure (SMILES): C[C@H]1c2cccc(O)c2C(O)=C2C(=O)[C@]3(O)C(O)=C(C(N)=O)C(=O)[C@H](N(C)C)[C@@H]3[C@@H](O)[C@@H]21 [4-epidoxycycline]
- function as an antibiotic [4]: does not function as an antibiotic
